Drawing on PubChem BioAssay AID2060360 (Molecular Pharmacology Branch, DTP, NCI, 2025), this text covers IC50 and viability, T/C for five molecules.

As a reminder, the IC50 is the point on the concentration scale where inhibition reaches its midpoint. In general, viability, T/C refers to the result in the treated group divided by that in the control group, in per cent.

Where “and” joins values, the source holds several entries; their conditions need not be identical. Identical values can stand only once.

The test system of the assay is 282377-053-R-J1-PDC tumor spheroids, viability. The assay is described as follows: Anticancer human tumor 282377-053-R-J1-PDC patient-derived colon adenocarcinoma cell line growth inhibition [TAK]. The following applies: spheroids with HUVEC and MSC; for viability, T/C: stronger effect = lower value. A digest of the protocol: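 Spheroids of 60% malignant cells, 25% HUVEC and 15% hMSC were exposed to targeted agents combined with TAK-243 or ipatasertib. Concentrations started at or near clinical Cmax (10 microM if unknown) and descended in half-log steps.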

Setting [1] is: curve of first compound, second compound 0.3 µM.
Where [2] appears, read: curve of first compound, second compound 0.949 µM.
[3] abbreviates: curve of first compound, second compound 3 µM.
Setting [4] is: curve of first compound, second compound 9.49 µM.
Setting [5] is: curve of first compound, second compound 30 µM.
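Further: spheroids exposed to drugs for seven days before readout.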

For the molecule `CCCS(=O)(=O)Nc1ccc(F)c(C(=O)c2c[nH]c3ncc(-c4ccc(Cl)cc4)cc23)c1F` + CC(C)NCC(C(=O)N1CCN(c2ncnc3c2C(C)CC3O)CC1)c1ccc(Cl)cc1, the IC50 reads like this: under setting [1], 7.81 µM; under setting [2], 6.86 µM; under setting [3], 7.56 µM; under setting [4], 5.95 µM; under setting [5], 2.99 µM. Further, the viability, T/C (second compound 0.3 µM, first compound 0.316 µM) was 79.5%; the viability, T/C (second compound 0.3 µM, first compound 1 µM) was 79.8%; the viability, T/C (second compound 0.3 µM, first compound 3.16 µM) is 82.6%; the viability, T/C (second compound 0.3 µM, first compound 10 µM) is 24.6%; the viability, T/C (second compound 0.3 µM, first compound 31.6 µM) was 1.89%; the viability, T/C (second compound 0.3 µM, first compound 100 µM) was 98.5%. Further, the viability, T/C (second compound 0.949 µM, first compound 0.316 µM) is 76.7%; the viability, T/C (second compound 0.949 µM, first compound 1 µM) was 79.9%; the viability, T/C (second compound 0.949 µM, first compound 3.16 µM) is 84.2%; the viability, T/C (second compound 0.949 µM, first compound 10 µM) is 7.58%; the viability, T/C (second compound 0.949 µM, first compound 31.6 µM) was 2.94%; the viability, T/C (second compound 0.949 µM, first compound 100 µM) was 95.3%. In addition, the viability, T/C (second compound 3 µM, first compound 0.316 µM) is 76.8%; the viability, T/C (second compound 3 µM, first compound 1 µM) was 73.7%; the viability, T/C (second compound 3 µM, first compound 3.16 µM) was 80.5%; the viability, T/C (second compound 3 µM, first compound 10 µM) was 33.4%; the viability, T/C (second compound 3 µM, first compound 31.6 µM) was 1.38%; the viability, T/C (second compound 3 µM, first compound 100 µM) was 89.3%. For the same molecule, the viability, T/C is, setting by setting: (second compound 9.49 µM, first compound 0.316 µM) 72.4%; (second compound 9.49 µM, first compound 1 µM) 70.1%; (second compound 9.49 µM, first compound 3.16 µM) 71.3%; (second compound 9.49 µM, first compound 10 µM) 10.9%; (second compound 9.49 µM, first compound 31.6 µM) 10.1%; (second compound 9.49 µM, first compound 100 µM) 76.7%. Further, the viability, T/C runs as follows: (second compound 30 µM, first compound 0.316 µM) 57.4%; (second compound 30 µM, first compound 1 µM) 61%; (second compound 30 µM, first compound 3.16 µM) 49.5%; (second compound 30 µM, first compound 10 µM) 9.48%; (second compound 30 µM, first compound 31.6 µM) 0.93%; (second compound 30 µM, first compound 100 µM) 46.8%.

Consider `COC1CC2CCC(C)C(O)(O2)C(=O)C(=O)N2CCCCC2C(=O)OC(C(C)CC2CCC(OCCO)C(OC)C2)CC(=O)C(C)C=C(C)C(O)C(OC)C(=O)C(C)CC(C)C=CC=CC=C1C` (stereo not given), for which the viability, T/C reads like this: (compound 0.000316 µM) 101% and 99.3%; (compound 0.001 µM) 101% and 97.3%; (compound 0.00316 µM) 97.6% and 98.6%; (compound 0.01 µM) 102% and 103%; (compound 0.0316 µM) 94.2% and 95.4%; (compound 0.1 µM) 101% and 97.8%. Also, the IC50 (curve of compound) is above 0.1 µM.

For `CC(C)NCC(C(=O)N1CCN(c2ncnc3c2C(C)CC3O)CC1)c1ccc(Cl)cc1` (stereo not given), the viability, T/C is 100% [middle of 10 runs] (compound 0.3 µM); 92% [middle of 10 runs] (compound 0.949 µM); 84.9% [middle of 10 runs] (compound 3 µM); 81.9% [middle of 10 runs] (compound 9.49 µM); 69.3% [middle of 10 runs] (compound 30 µM). The IC50 (compound alone, run of 03/19/2020) was above 30 µM.

As for `COc1c(OCCCN2CCOCC2)ccc2c3n(c(=NC(=O)c4cnc(N)nc4)nc12)CCN3`, the viability, T/C runs as follows: (compound 0.00316 µM) 101%; (compound 0.01 µM) 100% and 94.6%; (compound 0.0316 µM) 98.1% and 97.2%; (compound 0.1 µM) 98% and 87.7%; (compound 0.316 µM) 97.2% and 80.9%; (compound 1 µM) 56.2% and 19.3%. Besides, the IC50 (curve of compound) was > 1 µM and 0.555 µM.

Regarding `CC(C)n1nc(-c2ccc3oc(N)nc3c2)c2c(N)ncnc21` + CC(C)NCC(C(=O)N1CCN(c2ncnc3c2C(C)CC3O)CC1)c1ccc(Cl)cc1, the IC50 by setting is: under setting [1], above 0.1 µM; under setting [2], 0.0666 µM; under setting [3], 0.0303 µM; under setting [4], 0.0147 µM; under setting [5], 0.00407 µM. In addition, the viability, T/C (second compound 0.3 µM, first compound 0.000316 µM) is 106%; the viability, T/C (second compound 0.3 µM, first compound 0.001 µM) is 103%; the viability, T/C (second compound 0.3 µM, first compound 0.00316 µM) was 95.7%; the viability, T/C (second compound 0.3 µM, first compound 0.01 µM) was 88%; the viability, T/C (second compound 0.3 µM, first compound 0.0316 µM) was 69.7%; the viability, T/C (second compound 0.3 µM, first compound 0.1 µM) was 56.1%. Also, the viability, T/C is, setting by setting: (second compound 0.949 µM, first compound 0.000316 µM) 92%; (second compound 0.949 µM, first compound 0.001 µM) 93%; (second compound 0.949 µM, first compound 0.00316 µM) 86.3%; (second compound 0.949 µM, first compound 0.01 µM) 89.9%; (second compound 0.949 µM, first compound 0.0316 µM) 71.7%; (second compound 0.949 µM, first compound 0.1 µM) 38%. Moreover, the viability, T/C is, setting by setting: (second compound 3 µM, first compound 0.000316 µM) 83.5%; (second compound 3 µM, first compound 0.001 µM) 85.9%; (second compound 3 µM, first compound 0.00316 µM) 79%; (second compound 3 µM, first compound 0.01 µM) 71.5%; (second compound 3 µM, first compound 0.0316 µM) 49.1%; (second compound 3 µM, first compound 0.1 µM) 22.7%. In addition, the viability, T/C reads like this: (second compound 9.49 µM, first compound 0.000316 µM) 81.4%; (second compound 9.49 µM, first compound 0.001 µM) 77.3%; (second compound 9.49 µM, first compound 0.00316 µM) 74.7%; (second compound 9.49 µM, first compound 0.01 µM) 60.5%; (second compound 9.49 µM, first compound 0.0316 µM) 30%; (second compound 9.49 µM, first compound 0.1 µM) 14.8%. In addition, the viability, T/C is 68.8% (second compound 30 µM, first compound 0.000316 µM); 70.4% (second compound 30 µM, first compound 0.001 µM); 56.5% (second compound 30 µM, first compound 0.00316 µM); 25.9% (second compound 30 µM, first compound 0.01 µM); 15.9% (second compound 30 µM, first compound 0.0316 µM); 8.24% (second compound 30 µM, first compound 0.1 µM).
